The text below walks through data of paper PMC10485820 (European Journal of Pharmaceutical Sciences, 2023).

Where two headings read alike, the source gives them in different places.

Data set [1] deals with primary human plated hepatocytes. The data set is described as follows: Metabolic stability in human plated hepatocytes. The note with it: incubation up to 48 h, HSK7653 at 0.05 μM.
Experimental: Reactions were stopped by removing the plates from the incubator and mixing the incubation solution with 600 μL of ice-cold stop solution (acetonitrile) at the corresponding sampling time points.
A short description of data set [2]: Apparent permeability in Caco-2 monolayer cell lines. The note with it: human, Caco-2, positive controls. Format: in vitro ADME. How it is done:
All experiments were performed in triplicate and analyzed by high-performance liquid chromatography with tandem mass spectrometry (HPLC-MS/MS). The apparent permeability coefficient (Papp) of each compound under the corresponding concentration was calculated according to Eq. (1) and listed as follows:(1) Papp=dQ/dt×1/A×C0 Where Papp was the apparent permeability coefficient (cm/s × 10^−6), dQ/dt (pmol/second) was the rate at which the compound appears in the receiver side, C0 (nM) was the initial concentration of the compound in the donor side, and A (cm^2) represented the surface area of the cell monolayer.
(In general: Caco-2 monolayers are a common model of the intestinal barrier.)

Regarding `CC[C@@]1(c2ccccc2)NC(=O)N(C)C1=O` [S-mephenytoin], the “Half-life (t1/2) in human hepatocytes” value in data set [1] was determined as 21.7 h.
On to `C[C@H]1O[C@@H](O[C@H]2[C@@H](O)C[C@H](O[C@H]3[C@@H](O)C[C@H](O[C@H]4CC[C@@]5(C)[C@H](CC[C@@H]6[C@@H]5C[C@@H](O)[C@]5(C)[C@@H](C7=CC(=O)OC7)CC[C@]65O)C4)O[C@@H]3C)O[C@@H]2C)C[C@H](O)[C@@H]1O` [digoxin, reference compound], for which the Papp at 2 h in data set [2] (read-out: Papp) was 1.85 ×10⁻⁶ cm/s.
For the molecule `CC(C)NCC(O)COc1cccc2ccccc12` (stereo not shown) [propranolol, reference compound], the Papp at 2 h in data set [2] (apical pH: basolateral pH 7.4: 7.4, read-out: Caco-2 permeability, calibration input) turned out to be 33 ×10⁻⁶ cm/s; in data set [2] (read-out: Papp) it was 33 ×10⁻⁶ cm/s.
